From patent publication US20190047966A1, “NOVEL COMPOUND AND PHARMACOLOGICALLY ACCEPTABLE SALT THEREOF” (MEIJI SEIKA PHARMA CO., LTD., priority 2016, published 2019) come the findings set out here.

Assay [1] concerns the target T1, human histamine H4 receptor (Homo sapiens, UniProt Q9H3N8).
T1 construct: purchased PerkinElmer Inc; host or cells: CHO-K1
In words: Evaluation of Human H4 Receptor Affinity ([3H]histamine binding). The note with it: inhibition constant Ki, CHO-K1 membrane preparation, read-out: Evaluation of H4 Receptor Affinity. In short, it runs like this:
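Membranes from CHO-K1 cells expressing human H4 receptor incubated with 8.2 nM [3H]histamine and compound for 90 min at 25 °C in 50 mM Tris-HCl pH 7.4, 1.25 mM EDTA, then filtered and counted. Nonspecific binding defined with 1.0 μM histamine; Ki from IC50 by Cheng-Prusoff using Kd 5.7 nM.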

Assay [2] concerns the target human histamine H1 receptor (Homo sapiens, UniProt P35367). In words: Evaluation of Human H1 Receptor Affinity ([3H]pyrilamine binding). The arrangement: purchased PerkinElmer Inc; host or cells: CHO-K1. To be noted: inhibition constant Ki, CHO-K1 membrane preparation. In short, it runs like this: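 Ki values are Cheng-Prusoff conversions of IC50 (Kd 1.1 nM) from radioligand displacement of 1.2 nM [3H]pyrilamine, with 1.0 μM pyrilamine defining nonspecific binding.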

Where a name gives a salt, the structure may show the parent alone.

Sequence of human histamine H1 receptor (P35367 whole entry): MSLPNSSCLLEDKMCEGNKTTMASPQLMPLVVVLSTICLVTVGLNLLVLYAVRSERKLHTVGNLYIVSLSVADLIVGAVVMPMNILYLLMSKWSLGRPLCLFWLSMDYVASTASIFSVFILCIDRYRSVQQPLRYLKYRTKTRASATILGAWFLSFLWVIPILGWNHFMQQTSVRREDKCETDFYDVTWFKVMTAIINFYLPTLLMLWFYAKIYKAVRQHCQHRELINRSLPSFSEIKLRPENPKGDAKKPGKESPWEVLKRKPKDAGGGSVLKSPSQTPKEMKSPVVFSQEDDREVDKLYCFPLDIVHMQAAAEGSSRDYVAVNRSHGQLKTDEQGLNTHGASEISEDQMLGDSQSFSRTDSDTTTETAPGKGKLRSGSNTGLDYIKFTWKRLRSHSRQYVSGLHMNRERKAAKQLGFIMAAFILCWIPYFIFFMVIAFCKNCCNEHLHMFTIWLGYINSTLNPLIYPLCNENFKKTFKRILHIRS
T1 sequence (Q9H3N8 whole entry): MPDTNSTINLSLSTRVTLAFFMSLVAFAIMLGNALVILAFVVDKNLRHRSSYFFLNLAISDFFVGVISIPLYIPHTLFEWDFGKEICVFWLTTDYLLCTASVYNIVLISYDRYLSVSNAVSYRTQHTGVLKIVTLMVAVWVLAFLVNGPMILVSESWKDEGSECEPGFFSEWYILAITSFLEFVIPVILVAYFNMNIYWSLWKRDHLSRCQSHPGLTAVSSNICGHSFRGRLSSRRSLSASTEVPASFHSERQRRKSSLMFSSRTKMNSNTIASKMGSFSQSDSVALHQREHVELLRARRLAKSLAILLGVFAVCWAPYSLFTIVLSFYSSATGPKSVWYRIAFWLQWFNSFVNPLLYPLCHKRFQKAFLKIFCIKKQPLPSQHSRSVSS

On to `COC(=O)c1ccc(S(=O)(=O)Nc2ccc3c(c2)CCc2c-3nc(N)nc2N2CCN(C)CC2)cc1` [Example 55, methyl 4-(N-(2-amino-4-(4-methylpiperazin-1-yl)-5,6-dihydrobenzo[h]quinazolin-8-yl)sulfamoyl)benzoate], for which the Ki in assay [1] and in assay [2] was 100 to 500 nM throughout.
For the compound `CN1CCN(c2nc(N)nc3c2CCc2cc(NS(=O)(=O)C4CCCCC4)ccc2-3)CC1` [Example 56, N-(2-amino-4-(4-methylpiperazin-1-yl)-5,6-dihydrobenzo[h]quinazolin-8-yl)cyclohexanesulfonamide], the Ki in assay [1] and in assay [2] was 100 to 500 nM in each case.
On to `CN[C@H]1CCN(c2nc(N)nc3c2CCc2cc(OCc4ccccc4)ccc2-3)C1` [Example 101, (S)-8-(benzyloxy)-4-(3-(methylamino)pyrrolidin-1-yl)-5,6-dihydrobenzo[h]quinazolin-2-amine], for which the Ki in assay [1] was less than 100 nM; in assay [2] it was 100 to 500 nM.
The matching figures for `CN(C)[C@@H]1CCN(c2nc(N)nc3c2CCc2cc(OCc4ccccc4)ccc2-3)C1` [Example 103, (R)-8-(benzyloxy)-4-(3-(dimethylamino)pyrrolidin-1-yl)-5,6-dihydrobenzo[h]quinazolin-2-amine]: less than 100 nM and 100 to 500 nM.
The matching figures for `CN(C)C1CCN(c2nc(N)nc3c2CCc2cc(OCc4ccccc4)ccc2-3)CC1` [Example 104, 8-(benzyloxy)-4-(4-(dimethylamino)piperidin-1-yl)-5,6-dihydrobenzo[h]quinazolin-2-amine]: less than 100 nM and 100 to 500 nM.
The like results for `CCS(=O)(=O)NCCCCN1CCN(c2nc(N)nc3c2CCc2cc(OCc4ccccc4)ccc2-3)CC1` [Example 105, N-(4-(4-(2-amino-8-(benzyloxy)-5,6-dihydrobenzo[h]quinazolin-4-yl)piperazin-1-yl)butyl)ethanesulfonamide bis(trifluoroacetate)] were, in that order, 100 to 500 nM and less than 100 nM.
As to `CN1CCN(c2nc(N)nc3c2CCc2cc(OCc4ccccc4)ccc2-3)CC1CO` (stereo not shown) [Example 106, (4-(2-amino-8-(benzyloxy)-5,6-dihydrobenzo[h]quinazolin-4-yl)-1-methylpiperazin-2-yl)methanol], the Ki in assay [1] and in assay [2] was 100 to 500 nM in each case.
`CCS(=O)(=O)CCCN1CCN(c2nc(N)nc3c2CCc2cc(OCc4ccccc4)ccc2-3)CC1` [Example 107, 8-(benzyloxy)-4-(4-(3-(ethylsulfonyl)propyl)piperazin-1-yl)-5,6-dihydrobenzo[h]quinazolin-2-amine]: the Ki was 100 to 500 nM in assay [1] and less than 100 nM in assay [2].
The like results for `CNC(=O)COCCOCCN1CCN(c2nc(N)nc3c2CCc2cc(OCc4ccccc4)ccc2-3)CC1` [Example 108, 2-(2-(2-(4-(2-amino-8-(benzyloxy)-5,6-dihydrobenzo[h]quinazolin-4-yl)piperazin-1-yl)ethoxy)ethoxy)-N-methylacetamide] were, in that order, less than 100 nM and less than 100 nM.
The matching figures for `NC(=O)COCCOCCN1CCN(c2nc(N)nc3c2CCc2cc(OCc4ccccc4)ccc2-3)CC1` [Example 109, 2-(2-(2-(4-(2-amino-8-(benzyloxy)-5,6-dihydrobenzo[h]quinazolin-4-yl)piperazin-1-yl)ethoxy)ethoxy)acetamide]: 100 to 500 nM and less than 100 nM.
The like results for `CS(=O)(=O)NCCOCCOCCN1CCN(c2nc(N)nc3c2CCc2cc(OCc4ccccc4)ccc2-3)CC1` [Example 110, N-(2-(2-(2-(4-(2-amino-8-(benzyloxy)-5,6-dihydrobenzo[h]quinazolin-4-yl)piperazin-1-yl)ethoxy)ethoxy)ethyl)methanesulfonamide dihydrochloride] were, in that order, less than 100 nM and less than 100 nM.
Regarding `Nc1nc2c(c(N3CCN(CCOCCOCCN4C(=O)c5ccccc5C4=O)CC3)n1)CCc1cc(OCc3ccc(Cl)cc3)ccc1-2` [Example 112, 2-(2-(2-(2-(4-(2-amino-8-((4-chlorobenzyl)oxy)-5,6-dihydrobenzo[h]quinazolin-4-yl)piperazin-1-yl)ethoxy)ethoxy)ethyl)isoindoline-1,3-dione], the figures for the Ki in assay [1] and in assay [2] were 100 to 500 nM and less than 100 nM, respectively.
The like results for `COC(=O)COCCN1CCN(c2nc(N)nc3c2CCc2cc(OCc4ccc(Cl)cc4)ccc2-3)CC1` [Example 113, methyl 2-(2-(4-(2-amino-8-((4-chlorobenzyl)oxy)-5,6-dihydrobenzo[h]quinazolin-4-yl)piperazin-1-yl)ethoxy)acetate] were, in that order, less than 100 nM and less than 100 nM.
The like results for `CCS(=O)(=O)CCCN1CCN(c2nc(N)nc3c2CCc2cc(OCc4ccc(Cl)cc4)ccc2-3)CC1` [Example 114, 8-((4-chlorobenzyl)oxy)-4-(4-(3-(ethylsulfonyl)propyl)piperazin-1-yl)-5,6-dihydrobenzo[h]quinazolin-2-amine] were, in that order, 100 to 500 nM and less than 100 nM.
The matching figures for `Nc1nc2c(c(N3CCN(CCOCCOc4nnn[nH]4)CC3)n1)CCc1cc(OCc3ccc(Cl)cc3)ccc1-2` [Example 115, 4-(4-(2-(2-((tetrazol-5-yl)oxy)ethoxy)ethyl)piperazin-1-yl)-8-((4-chlorobenzyl)oxy)-5,6-dihydrobenzo[h]quinazolin-2-amine dihydrochloride]: 100 to 500 nM and less than 100 nM.
Consider `Nc1nc2c(c(N3CCN(CCOCc4cc(OCc5ccccc5)no4)CC3)n1)CCc1cc(OCc3ccc(Cl)cc3)ccc1-2` [Example 116, 4-(4-(2-((3-(benzyloxy)isoxazol-5-yl)methoxy)ethyl)piperazin-1-yl)-8-((4-chlorobenzyl)oxy)-5,6-dihydrobenzo[h]quinazolin-2-amine], for which the results for the Ki in assay [1] and in assay [2] were 100 to 500 nM and less than 100 nM, respectively.
The like results for `COC(=O)C1CN(C(=O)CCCN2CCN(c3nc(N)nc4c3CCc3cc(OCc5ccc(Cl)cc5)ccc3-4)CC2)C1` [Example 117, methyl 1-(4-(4-(2-amino-8-((4-chlorobenzyl)oxy)-5,6-dihydrobenzo[h]quinazolin-4-yl)piperazin-1-yl)butanoyl)azetidine-3-carboxylate] were, in that order, less than 100 nM and 100 to 500 nM.
Consider `NCCOCCOCCN1CCN(c2nc(N)nc3c2CCc2cc(OCc4ccc(Cl)cc4)ccc2-3)CC1` [Example 118, 4-(4-(2-(2-(2-aminoethoxy)ethoxy)ethyl)piperazin-1-yl)-8-((4-chlorobenzyl)oxy)-5,6-dihydrobenzo[h]quinazolin-2-amine], for which the Ki in assay [1] and in assay [2] was less than 100 nM each time.
With `Nc1nc2c(c(N3CCN(CCOCCOCC(=O)O)CC3)n1)CCc1cc(OCc3ccccc3)ccc1-2` [Example 119, 2-(2-(2-(4-(2-amino-8-(benzyloxy)-5,6-dihydrobenzo[h]quinazolin-4-yl)piperazin-1-yl)ethoxy)ethoxy)acetic acid bis(trifluoroacetate)], the figures for the Ki in assay [1] and in assay [2] were 100 to 500 nM and less than 100 nM, respectively.
The matching figures for `Nc1nc2c(c(N3CCN(CCCCCOCC(=O)O)CC3)n1)CCc1cc(OCc3ccccc3)ccc1-2` [Example 120, 2-((5-(4-(2-amino-8-(benzyloxy)-5,6-dihydrobenzo[h]quinazolin-4-yl)piperazin-1-yl)pentyl)oxy)acetic acid]: less than 100 nM and less than 100 nM.
For `CC(OCCOCCN1CCN(c2nc(N)nc3c2CCc2cc(OCc4ccc(Cl)cc4)ccc2-3)CC1)C(=O)O` (stereo not shown) [Example 121, 2-(2-(2-(4-(2-amino-8-((4-chlorobenzyl)oxy)-5,6-dihydrobenzo[h]quinazolin-4-yl)piperazin-1-yl)ethoxy)ethoxy)propanoic acid dihydrochloride], the Ki was 100 to 500 nM in assay [1] and less than 100 nM in assay [2].
In the case of `CC(OCCCCN1CCN(c2nc(N)nc3c2CCc2cc(OCc4ccc(Cl)cc4)ccc2-3)CC1)C(=O)O` (stereo not shown) [Example 123, 2-(4-(4-(2-amino-8-((4-chlorobenzyl)oxy)-5,6-dihydrobenzo[h]quinazolin-4-yl)piperazin-1-yl)butoxy)propanoic acid], the figures for the Ki in assay [1] and in assay [2] were 100 to 500 nM and less than 100 nM, respectively.
The like results for `Nc1nc2c(c(N3CCN(CCOCCOCC(=O)O)CC3)n1)CCc1cc(OCc3ccc(F)cc3)ccc1-2` [Example 124, 2-(2-(2-(4-(2-amino-8-((4-fluorobenzyl)oxy)-5,6-dihydrobenzo[h]quinazolin-4-yl)piperazin-1-yl)ethoxy)ethoxy)acetic acid] were, in that order, less than 100 nM and less than 100 nM.
For the compound `Nc1nc2c(c(N3CCN(CC(=O)NCCCC(=O)O)CC3)n1)CCc1cc(OCc3ccc(Cl)cc3)ccc1-2` [Example 125, 4-(2-(4-(2-amino-8-((4-chlorobenzyl)oxy)-5,6-dihydrobenzo[h]quinazolin-4-yl)piperazin-1-yl)acetamido)butanoic acid dihydrochloride], the Ki is 100 to 500 nM in assay [1] and less than 100 nM in assay [2].
The matching figures for `CCC(OCCOCCN1CCN(c2nc(N)nc3c2CCc2cc(OCc4ccc(Cl)cc4)ccc2-3)CC1)C(=O)O` (stereo not shown) [Example 126, 2-(2-(2-(4-(2-amino-8-((4-chlorobenzyl)oxy)-5,6-dihydrobenzo[h]quinazolin-4-yl)piperazin-1-yl)ethoxy)ethoxy)butanoic acid]: less than 100 nM and less than 100 nM.
The like results for `Nc1nc2c(c(N3CCN(CCOc4cccc(CC(=O)O)c4)CC3)n1)CCc1cc(OCc3ccc(Cl)cc3)ccc1-2` [Example 130, 2-(3-(2-(4-(2-amino-8-((4-chlorobenzyl)oxy)-5,6-dihydrobenzo[h]quinazolin-4-yl)piperazin-1-yl)ethoxy)phenyl)acetic acid] were, in that order, 100 to 500 nM and less than 100 nM.
